Assay [1] is described as follows: Inhibition of rat intestinal alpha-glucosidase using nitrophenyl-alpha-D-glucopyranoside by spectrophotometrically.
A further assay relates to MCF7. The experiment in a line: Anticancer activity against human MCF7 cells by MTT assay. It counts as functional, cell-based. A general note: Formazan colour is commonly taken as a measure of viable cells.
A further assay deals with A549. The experiment in a line: Anticancer activity against human A549 cells by MTT assay. It counts as functional, cell-based.
A further assay deals with HepG2. The experiment in a line: Anticancer activity against human HepG2 cells by MTT assay. It counts as functional, cell-based.
Assay [2] in a line: Anticancer activity against human IMR32 cells by MTT assay. It counts as functional, cell-based, IMR-32.
Another assay has as its system DU-145. The assay is described as follows: Anticancer activity against human DU145 cells by MTT assay. It counts as functional, cell-based.
The mark [3] stands for this setting: Homo sapiens, A549, read-out: IC50.
[4] abbreviates: Homo sapiens, HepG2, read-out: IC50.
The mark [5] stands for this setting: Homo sapiens, IMR-32, read-out: IC50.
[6] abbreviates: Homo sapiens, MCF7, read-out: IC50.
[7] abbreviates: Homo sapiens, DU-145, read-out: IC50.

Each structure is given as a SMILES string.

Turning to `Cc1ccc(-n2cc(COc3ccc(/C=C/C(=O)c4cc5c(cc4O)OC(C)(C)CC5)cc3)nn2)cc1Br`, the IC50 – broadly, the concentration needed to halve the response being measured – is “Not Active” in assay [1]; “Not Active” with MCF7 (mcf7); 125 µM in the assay on A549 (setting [3]); 117 µM in the assay with HepG2 (setting [4]); “Not Active” in assay [2] (imr-32); “Not Active” with DU-145 (du-145).

For the compound `CC1(C)CCc2cc(C(=O)/C=C/c3ccc(OCc4cn(-c5ccc(Br)cc5)nn4)cc3)c(O)cc2O1`, the IC50 result in assay [1] was “Not Active”; with MCF7 (mcf7) it was “Not Active”; in the assay with A549 (setting [3]), 80 µM; with HepG2 (hepg2), “Not Active”; in assay [2] (setting [5]) it was 69.4 µM; in the assay on DU-145 (du-145) it was “Not Active”.

Consider `Cc1c(-n2cc(COc3ccc(/C=C/C(=O)c4cc5c(cc4O)OC(C)(C)CC5)cc3)nn2)cccc1[N+](=O)[O-]`, for which the IC50 entry is “Not Active” in assay [1]; 176 µM with MCF7 (setting [6]); 65.9 µM in the assay with A549 (setting [3]); 109 µM in the assay with HepG2 (setting [4]); “Not Active” in assay [2] (imr-32); “Not Active” with DU-145 (du-145).

With `CCCCCn1cc(COc2ccc(/C=C/C(=O)c3ccc4c(c3O)CCC(C)(C)O4)cc2)nn1`, the IC50 in assay [1] (read-out: IC50) was 102 µM; in the assay with MCF7 (setting [6]) it was 191 µM; in the assay on A549 (setting [3]), 48.6 µM; in the assay on HepG2 (setting [4]), 9.82 µM; in assay [2] (imr-32) it was “Not Active”; with DU-145 (du-145), “Not Active”.

On to `CCc1ccccc1-n1cc(COc2ccc(/C=C/C(=O)c3ccc4c(c3O)CCC(C)(C)O4)cc2)nn1`, for which the IC50 in assay [1] (read-out: IC50) was 67.8 µM; in the assay with MCF7 (mcf7), “Not Active”; in the assay with A549 (setting [3]), 112 µM; in the assay with HepG2 (setting [4]), 67.8 µM; in assay [2] (imr-32), “Not Active”; in the assay on DU-145 (du-145), “Not Active”.

On to `COc1ccc(-n2cc(COc3ccc(/C=C/C(=O)c4cc5c(cc4O)OC(C)(C)CC5)cc3)nn2)c([N+](=O)[O-])c1`, for which the IC50 result was “Not Active” in assay [1]; “Not Active” in the assay with MCF7 (mcf7); 99.5 µM in the assay on A549 (setting [3]); “Not Active” with HepG2 (hepg2); “Not Active” in assay [2] (imr-32); “Not Active” in the assay on DU-145 (du-145).

Take `COc1cccc2c1C(=O)c1c(O)c3c(c(O)c1C2=O)C[C@@](O)(C(=O)CO)C[C@@H]3O[C@H]1C[C@H](N)[C@H](O)[C@H](C)O1` [DOXORUBICIN]: the IC50 result in assay [1] is “Not Active”; in the assay with A549 (setting [3]), 69.3 µM; with HepG2 (setting [4]), 1.05 µM; in assay [2] (setting [5]), 44.4 µM; in the assay on DU-145 (setting [7]), 17.7 µM.

Turning to `Cc1c(-n2cc(COc3ccc(/C=C/C(=O)c4ccc5c(c4O)CCC(C)(C)O5)cc3)nn2)cccc1[N+](=O)[O-]`, the IC50 result in assay [1] was “Not Active”; in the assay on MCF7 (setting [6]), 145 µM; in the assay on A549 (a549), “Not Active”; in the assay on HepG2 (setting [4]) it was 115 µM; in assay [2] (setting [5]), 73.5 µM; with DU-145 (du-145) it was “Not Active”.

As for `CCCCCCCCn1cc(COc2ccc(/C=C/C(=O)c3ccc4c(c3O)CCC(C)(C)O4)cc2)nn1`, the IC50 entry in assay [1] is “Not Active”; in the assay on MCF7 (mcf7) it was “Not Active”; with A549 (a549) it was “Not Active”; in the assay on HepG2 (setting [4]) it was 74.1 µM; in assay [2] (imr-32), “Not Active”; in the assay on DU-145 (du-145), “Not Active”.

With `CC1(C)CCc2c(ccc(C(=O)/C=C/c3ccc(OCc4cn(Cc5ccc([N+](=O)[O-])cc5)nn4)cc3)c2O)O1`, the IC50 result is “Not Active” in assay [1]; 17.1 µM with MCF7 (setting [6]); 69.9 µM in the assay on A549 (setting [3]); 69.9 µM in the assay with HepG2 (setting [4]); 17.3 µM in assay [2] (setting [5]); 29.9 µM with DU-145 (setting [7]).

For `CCc1ccccc1-n1cc(COc2ccc(/C=C/C(=O)c3cc4c(cc3O)OC(C)(C)CC4)cc2)nn1`, the IC50 result in assay [1] is “Not Active”; in the assay with MCF7 (mcf7), “Not Active”; with A549 (setting [3]) it was 137 µM; in the assay on HepG2 (setting [4]), 115 µM; in assay [2] (imr-32) it was “Not Active”; in the assay on DU-145 (du-145), “Not Active”.

In the case of `CC(=O)c1ccc(-n2cc(COc3ccc(/C=C/C(=O)c4cc5c(cc4O)OC(C)(C)CC5)cc3)nn2)cc1`, the IC50 entry in assay [1] was “Not Active”; in the assay on MCF7 (setting [6]), 182 µM; in the assay with A549 (setting [3]) it was 66.3 µM; in the assay on HepG2 (hepg2), “Not Active”; in assay [2] (imr-32), “Not Active”; with DU-145 (du-145), “Not Active”.

In the case of `COc1ccc(-n2cc(COc3ccc(/C=C/C(=O)c4ccc5c(c4O)CCC(C)(C)O5)cc3)nn2)c([N+](=O)[O-])c1`, the IC50 entry in assay [1] was “Not Active”; in the assay with MCF7 (setting [6]), 73.1 µM; in the assay on A549 (a549), “Not Active”; in the assay on HepG2 (setting [4]) it was 120 µM; in assay [2] (setting [5]), 132 µM; with DU-145 (du-145), “Not Active”.

Take `CC1(C)CCc2cc(C(=O)/C=C/c3ccc(OCc4cn(-c5ccc(Cl)cc5)nn4)cc3)c(O)cc2O1`: the half-inhibitory concentration (IC50) entry in assay [1] is “Not Active”; with MCF7 (mcf7) it was “Not Active”; in the assay on A549 (setting [3]), 75.5 µM; in the assay with HepG2 (hepg2), “Not Active”; in assay [2] (setting [5]), 92.1 µM; in the assay with DU-145 (du-145) it was “Not Active”.

On to `CC(=O)c1ccc(-n2cc(COc3ccc(/C=C/C(=O)c4ccc5c(c4O)CCC(C)(C)O5)cc3)nn2)cc1`, for which the IC50 entry in assay [1] was “Not Active”; in the assay on MCF7 (setting [6]), 171 µM; in the assay on A549 (setting [3]), 149 µM; with HepG2 (setting [4]) it was 91.4 µM; in assay [2] (setting [5]) it was 89.5 µM; in the assay on DU-145 (du-145), “Not Active”.

`C[C@H]1O[C@H](O[C@H]2[C@H](O)[C@@H](O)[C@@H](O[C@H]3[C@H](O)[C@@H](O)C(O)O[C@@H]3CO)O[C@@H]2CO)[C@H](O)[C@@H](O)[C@@H]1N[C@H]1C=C(CO)[C@@H](O)[C@H](O)[C@H]1O` (stereo partly specified) [ACARBOSE]: the IC50 in assay [1] (read-out: IC50) was 23.9 µM; in the assay on MCF7 (mcf7), “Not Active”; in the assay on A549 (a549) it was “Not Active”; in the assay on HepG2 (hepg2) it was “Not Active”; in assay [2] (imr-32) it was “Not Active”; with DU-145 (du-145), “Not Active”.

On to `CC1(C)CCc2c(ccc(C(=O)/C=C/c3ccc(OCc4cn(-c5ccc(Br)cc5)nn4)cc3)c2O)O1`, for which the half-inhibitory concentration (IC50) result in assay [1] is “Not Active”; with MCF7 (mcf7) it was “Not Active”; in the assay with A549 (setting [3]), 129 µM; in the assay on HepG2 (setting [4]) it was 136 µM; in assay [2] (setting [5]), 117 µM; with DU-145 (du-145), “Not Active”.

For the compound `CCCCCCCCn1cc(COc2ccc(/C=C/C(=O)c3cc4c(cc3O)OC(C)(C)CC4)cc2)nn1`, the IC50 result is “Not Active” in assay [1]; “Not Active” in the assay on MCF7 (mcf7); 50.8 µM in the assay with A549 (setting [3]); 127 µM with HepG2 (setting [4]); 7.09 µM in assay [2] (setting [5]); “Not Active” with DU-145 (du-145).

On to `CC1(C)CCc2c(ccc(C(=O)/C=C/c3ccc(OCc4cn(-c5ccc(Cl)cc5)nn4)cc3)c2O)O1`, for which the IC50 is 128 µM in assay [1] (read-out: IC50); “Not Active” in the assay on MCF7 (mcf7); “Not Active” with A549 (a549); 102 µM with HepG2 (setting [4]); “Not Active” in assay [2] (imr-32); “Not Active” in the assay on DU-145 (du-145).

Turning to `CCCCCn1cc(COc2ccc(/C=C/C(=O)c3cc4c(cc3O)OC(C)(C)CC4)cc2)nn1`, the IC50 is 74.9 µM in assay [1] (read-out: IC50); “Not Active” with MCF7 (mcf7); 91.3 µM in the assay with A549 (setting [3]); 95.8 µM with HepG2 (setting [4]); “Not Active” in assay [2] (imr-32); “Not Active” in the assay with DU-145 (du-145).

Take `CC1(C)CCc2cc(C(=O)/C=C/c3ccc(OCc4cn(Cc5ccc([N+](=O)[O-])cc5)nn4)cc3)c(O)cc2O1`: the IC50 entry in assay [1] was “Not Active”; with MCF7 (mcf7), “Not Active”; in the assay on A549 (setting [3]), 35.8 µM; in the assay on HepG2 (setting [4]) it was 109 µM; in assay [2] (setting [5]), 108 µM; with DU-145 (du-145), “Not Active”.

As for `Cc1ccc(-n2cc(COc3ccc(/C=C/C(=O)c4ccc5c(c4O)CCC(C)(C)O5)cc3)nn2)cc1Br`, the IC50 entry in assay [1] was “Not Active”; with MCF7 (mcf7) it was “Not Active”; with A549 (a549), “Not Active”; in the assay with HepG2 (setting [4]), 110 µM; in assay [2] (imr-32) it was “Not Active”; in the assay with DU-145 (du-145), “Not Active”.

These data come from ChEMBL document CHEMBL3414566, “Synthesis, docking and ADMET studies of novel chalcone triazoles for anti-cancer and anti-diabetic activity” (Eur J Med Chem, 2015).
